This passage reports IC50 results from US9549921B2, “Heterocyclic compounds and methods of use thereof for the treatment of hepatitis C” (priority 2014, dated 2017).

One assay concerns HCV replicon genotype 1a. The assay can be described thus: HCV replicon assay, genotype 1a (cell ELISA for NS3/4A). Format: cell-based, hepatitis C virus. An outline of the steps:
(§1)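 Readout is NS3/4A protein level from an antibody-based cell ELISA, serving as an indirect measure of replicon RNA; IC50 fitted with a four-parameter function relative to DMSO control. Replicon cells, kept under G418 beforehand, were plated with serial compound dilutions minus G418 for 96 hours.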
In general terms: A replicon is a self-replicating genome or part of one, used to study replication in cells.

The next assay has as its system HCV replicon genotype 1b. The assay can be described thus: HCV replicon assay, genotype 1b (cell ELISA for NS3/4A). The format is cell-based, hepatitis C virus. An outline of the steps:
as §1

The mark [1] stands for this setting: read-out: 1a IC50; HCV genotype 1a replicon cells, 96 hours incubation, NS3/4A ELISA readout, % of DMSO control.
Where [2] appears, read: read-out: 1b IC50; HCV genotype 1b replicon cells, 96 hours incubation, NS3/4A ELISA readout, % of DMSO control.
The mark [3] stands for this setting: Hepatitis C virus, 96 h, read-out: 1a IC50 (nM), HCV genotype 1a replicon cells, 96 hours incubation, NS3/4A ELISA readout, % of DMSO control.
[4] abbreviates: Hepatitis C virus, 96 h, read-out: 1b IC50 (nM), HCV genotype 1b replicon cells, 96 hours incubation, NS3/4A ELISA readout, % of DMSO control.

pIC50: −log10 of the molar value. Read-outs that look alike come from different tables or passages of the source.

In the case of `CNC(=O)c1c(-c2ccc(F)cc2)oc2cc(N(C)S(C)(=O)=O)c([C@@H]3CCCN(C(=O)C4CC4c4ccccn4)C3)cc12` (stereo partly shown) [Example 78, 2-(4-fluorophenyl)-N-methyl-6-[methyl(methylsulfonyl)amino]-5-{1-[(2-pyridin-2-ylcyclopropyl)carbonyl]piperidin-3-yl}-1-benzofuran-3-carboxamide], the pIC50 – broadly, −log10 of the IC50, conventionally taken in molar units – is 6.61 in the assay on HCV replicon genotype 1a (setting [1]) and 7.09 in the assay on HCV replicon genotype 1b (setting [2]).

Regarding `CNC(=O)c1c(-c2ccc(F)cc2)oc2cc(N(C)S(C)(=O)=O)c([C@H]3CN(c4nc5ccccc5o4)CCO3)cc12` (single isomer, unassigned) [Example 11, 5-(4-(benzo[d]oxazol-2-yl)morpholin-2-yl)-2-(4-fluorophenyl)-N-methyl-6-(N-methylmethylsulfonamido)benzofuran-3-carboxamide], the negative-log IC50 (pIC50) was 7.67 in the assay on HCV replicon genotype 1a (setting [1]) and 7.76 in the assay with HCV replicon genotype 1b (setting [2]).

For `CNC(=O)c1c(-c2ccc(F)cc2)oc2cc(N(C)S(C)(=O)=O)c([C@H]3CCCN(C(=O)c4cc5cccc(C(F)(F)F)c5[nH]4)C3)cc12` [Example 40, (R)-2-(4-fluorophenyl)-N-methyl-6-(N-methylmethylsulfonamido)-5-(1-(7-(trifluoromethyl)-1H-indole-2-carbonyl)piperidin-3-yl)benzofuran-3-carboxamide], the IC50 with HCV replicon genotype 1a (setting [3]) came to 142 nM; in the assay with HCV replicon genotype 1b (setting [4]), 27.6 nM.

Turning to `CNC(=O)c1c(-c2ccc(F)cc2)oc2cc(N(C)S(C)(=O)=O)c([C@@H]3CCCN(S(=O)(=O)c4ccc5c(c4)CC(=O)N5)C3)cc12` [Example 122, 2-(4-fluorophenyl)-N-methyl-6-[methyl(methylsulfonyl)amino]-5-{(3S)-1-[(2-oxo-2,3-dihydro-1H-indol-5-yl)sulfonyl]piperidin-3-yl}-1-benzofuran-3-carboxamide], the IC50 in the assay on HCV replicon genotype 1a (setting [3]) is 78.8 nM; with HCV replicon genotype 1b (setting [4]), 22.1 nM.

Turning to `CNC(=O)c1c(-c2ccc(F)cc2)oc2cc(N(C)S(C)(=O)=O)c([C@@H]3CCCN(C(=O)[C@H](N)c4ccccc4F)C3)cc12` (single isomer, unassigned) [Example 29], the IC50 came to 83.1 nM in the assay with HCV replicon genotype 1a (setting [3]) and 148 nM with HCV replicon genotype 1b (setting [4]).

Take `CNC(=O)c1c(-c2ccc(F)cc2)oc2cc(N(C)S(C)(=O)=O)c([C@@H]3CCCN(C(=O)c4cc5cccc(C(F)(F)F)c5[nH]4)C3)cc12` [Example 39, (S)-2-(4-fluorophenyl)-N-methyl-6-(N-methylmethylsulfonamido)-5-(1-(7-(trifluoromethyl)-1H-indole-2-carbonyl)piperidin-3-yl)benzofuran-3-carboxamide]: the results for the IC50 in the assay with HCV replicon genotype 1a (setting [3]) and with HCV replicon genotype 1b (setting [4]) were 268 nM and 36.4 nM, respectively.

In the case of `CNC(=O)c1c(-c2ccc(F)cc2)oc2cc(N(C)S(C)(=O)=O)c([C@@H]3CCCN(C(=O)c4nc5ccccc5n4C)C3)cc12` (single isomer, unassigned) [Example 23, 2-(4-fluorophenyl)-N-methyl-5-(1-(1-methyl-1H-benzo[d]imidazole-2-carbonyl)piperidin-3-yl)-6-(N-methylmethylsulfonamido)benzofuran-3-carboxamide], the results for the IC50 in the assay on HCV replicon genotype 1a (setting [3]) and with HCV replicon genotype 1b (setting [4]) were 45.5 nM and 57.7 nM, respectively.

For the molecule `CNC(=O)c1c(-c2ccc(F)cc2)oc2cc(N(C)S(C)(=O)=O)c([C@@H]3CCCN(C(=O)c4cc5c(F)cccc5n4C)C3)cc12` (single isomer, unassigned) [Example 26, 5-(1-(4-fluoro-1-methyl-1H-indole-2-carbonyl)piperidin-3-yl)-2-(4-fluorophenyl)-N-methyl-6-(N-methylmethylsulfonamido)benzofuran-3-carboxamide], the pIC50 in the assay with HCV replicon genotype 1a (setting [1]) was 7.80; in the assay with HCV replicon genotype 1b (setting [2]), 7.90.

Turning to `CNC(=O)c1c(-c2ccc(F)cc2)oc2cc(N(C)S(C)(=O)=O)c([C@H]3CCCN(S(=O)(=O)c4cccc(F)c4)C3)cc12` [Example 130, 2-(4-fluorophenyl)-5-{(3R)-1-[(3-fluorophenyl)sulfonyl]piperidin-3-yl}-N-methyl-6-[methyl(methylsulfonyl)amino]-1-benzofuran-3-carboxamide], the IC50 with HCV replicon genotype 1a (setting [3]) worked out at 174 nM; in the assay on HCV replicon genotype 1b (setting [4]), 95.5 nM.

Turning to `CNC(=O)c1c(-c2ccc(F)cc2)oc2cc(N(C)S(C)(=O)=O)c([C@H]3CCCN(C(=O)c4cc5ccccn5c4)C3)cc12` [Example 106, 2-(4-fluorophenyl)-5-[(3R)-1-(indolizin-2-ylcarbonyl)piperidin-3-yl]-N-methyl-6-[methyl(methylsulfonyl)amino]-1-benzofuran-3-carboxamide], the IC50 came to 123 nM in the assay on HCV replicon genotype 1a (setting [3]) and 51.5 nM with HCV replicon genotype 1b (setting [4]).

With `CNC(=O)c1c(-c2ccc(F)cc2)oc2cc(N(C)S(C)(=O)=O)c([C@@H]3CCCN(C(=O)c4nc5ccccc5o4)C3)cc12` [Example 77, 5-[1-(1,3-benzoxazol-2-ylcarbonyl)piperidin-3-yl]-2-(4-fluorophenyl)-N-methyl-6-[methyl(methylsulfonyl)amino]-1-benzofuran-3-carboxamide], the figures for the IC50 in the assay with HCV replicon genotype 1a (setting [3]) and in the assay on HCV replicon genotype 1b (setting [4]) were 64.3 nM and 19.2 nM, respectively.

`CNC(=O)c1c(-c2ccc(F)cc2)oc2cc(N(C)S(C)(=O)=O)c([C@@H]3CCCN(C(=O)Cc4ccc(F)cc4)C3)cc12` (single isomer, unassigned) [Example 18, 2-(4-fluorophenyl)-5-(1-(2-(4-fluorophenyl)acetyl)piperidin-3-yl)-N-methyl-6-(N-methylmethylsulfonamido)benzofuran-3-carboxamide]: the pIC50 is 6.73 with HCV replicon genotype 1a (setting [1]) and 7.14 with HCV replicon genotype 1b (setting [2]).

In the case of `CNC(=O)c1c(-c2ccc(F)cc2)oc2cc(N(C)S(C)(=O)=O)c([C@@H]3CCCN(c4nc5ccccc5o4)C3)cc12` (single isomer, unassigned) [Example 47, 5-(1-(benzo[d]oxazol-2-yl)piperidin-3-yl)-2-(4-fluorophenyl)-N-methyl-6-(N-methylmethylsulfonamido)benzofuran-3-carboxamide], the pIC50 was 8.08 in the assay with HCV replicon genotype 1a (setting [1]) and 8.27 in the assay with HCV replicon genotype 1b (setting [2]).

As for `CNC(=O)c1c(-c2ccc(F)cc2)oc2cc(N(C)S(C)(=O)=O)c(C3CCCN(c4nc5cc(F)ccc5o4)C3)cc12` (stereo not shown) [Example 51], the pIC50 is 8.30 in the assay with HCV replicon genotype 1a (HCV genotype 1a replicon cells, 96 hours incubation, NS3/4A ELISA readout, % of DMSO control; read-out: 1a IC50) and 8.15 in the assay on HCV replicon genotype 1b (HCV genotype 1b replicon cells, 96 hours incubation, NS3/4A ELISA readout, % of DMSO control; read-out: 1b IC50).
